The test system of this assay is Huh7 psiCHECK-miR122 Renilla luciferase reporter, 48 h. The assay can be described thus: miR-122 inhibitors in Huh7 reporter cells, dose response, cell-based, Huh7 psiCHECK-miR122, Renilla luciferase, cherry-pick (AID 652053).
Take `O=C(C1CCCCC1)N1C[C@H]2[C@@H](c3ccccc31)[C@@H](CO)N2C(=O)c1ccccc1`: the AC40 was 1.37 µM.
As for `COc1ccc(NS(=O)(=O)c2cc(Br)cc3c2N(C(C)=O)CC3)cc1`, the AC40 is 2.67 µM.
In the case of `Cc1ccc(NS(=O)(=O)c2cccc3nsnc23)cc1C`, the AC40 is 4.13 µM.
Turning to `CC(C)c1ccc(S(=O)(=O)Nc2ccc(-n3cnnn3)cc2)cc1`, the AC40 is 2.55 µM.
For the compound `C/C(CC(=O)Nc1ccccn1)=N\NC(=O)c1ccccc1O`, the AC40 was 2.59 µM.
With `O=S(=O)(Nc1cccc(-c2cn3ccsc3n2)c1)c1ccc(F)cc1`, the AC40 was 6.48 µM.
As to `COc1ccccc1NS(=O)(=O)c1cc(NC(=S)NCC2CCCO2)ccc1C` (centres undefined), the AC40 was 3.52 µM.
For `Cc1ccc(S(=O)(=O)Nc2ccc3c(c2)C(=O)N([C@@H](C)CO)C[C@H](C)[C@H](CN(C)C(=O)Nc2ccc(F)cc2)OCCCC[C@@H](C)O3)cc1`, the AC40 is 1.86 µM.
In the case of `Nc1ncc(Br)cc1S(=O)(=O)NC1CCCCC1`, the AC40 is 2.19 µM.
In the case of `COC(=O)c1ccc(Nc2nnc(-c3ccc(C)c(S(=O)(=O)NCC4CCCO4)c3)c3ccccc23)cc1` (centres undefined), the AC40 is 0.761 µM.
The figure for `O=C(NCCCn1ccnc1)c1cccc(S(=O)(=O)Nc2ccc(F)cc2)c1` is 3.77 µM; for `CCOc1ccc(S(=O)(=O)Nc2ccc3c(c2)OCO3)c2cccnc12` it is less than 0.26 µM; for `CSc1ccc(S(=O)(=O)NC2CCCCC2)cc1` it is 2.87 µM.
On to `Cc1sc(NC(=O)c2ccccc2)c(C(c2ccc(Cl)cc2)N2CCN(CCO)CC2)c1C` (centres undefined), for which the AC40 was 22.3 µM.
Regarding `CCOc1cc(C)c(S(=O)(=O)NCCCn2ccnc2)cc1C`, the AC40 is 5.88 µM.
Take `CC(=O)Nc1ccc2c(c1)C(=O)N(C)[C@H]1CC[C@@H](CC(=O)NCc3ccc(Cl)cc3)O[C@H]1CO2`: the AC40 is 11 µM.
For `CC(=O)Nc1ccc(C(=O)Nc2ccc(S(=O)(=O)NCC3CCCO3)cc2)cc1` (centres undefined), the AC40 is 2.69 µM.
As to `C[C@@H]1CCCCO[C@@H](CN(C)CC2CCCCC2)[C@@H](C)CN([C@H](C)CO)C(=O)c2cc(NC(=O)CCC(F)(F)F)ccc2O1`, the AC40 was 9.73 µM.
On to `COCCNC(=O)C[C@@H]1CC[C@H]2[C@H](COc3ccc(NC(=O)Cc4ccccc4)cc3C(=O)N2C)O1`, for which the AC40 is 1.34 µM.
Regarding `Cc1cc2c(cc1S(=O)(=O)NCCc1ccccc1)NC(=O)CO2`, the AC40 is 4.41 µM.
For `O=S(=O)(c1ccc(F)cc1)N1C[C@H]2[C@@H](c3ccccc31)[C@@H](CO)N2Cc1ccc2c(c1)OCO2`, the AC40 was 4.82 µM.
On to `O=C(N/N=C/c1ccc(Cl)s1)C(O)c1ccccc1` (centres undefined), for which the AC40 is 1.17 µM.
Consider `COc1ccc(S(=O)(=O)Nc2cc3c(C(C)=O)c(C)oc3c3ccccc23)cc1`, for which the AC40 is 14.9 µM.
The figure for `Cc1ccc(-c2nn(Cc3ccccc3)cc2C(=O)N2CCN(c3ccccn3)CC2)cc1` is 2.44 µM; for `COc1ccc(OC)c(S(=O)(=O)Nc2ccccc2C(F)(F)F)c1` it is 9.97 µM; for `S=C(Nc1ccc(Cl)cc1Cl)NC1CCCCC1` it is 3.4 µM.
The figure for `COCC(=O)Nc1ccc(S(=O)(=O)NCCc2ccccc2)cc1` is 12.9 µM.
For `Cc1ccccc1NC(=O)Nc1ccc2c(c1)C(=O)N(C)[C@H]1CC[C@H](CC(=O)NCC3CC3)O[C@H]1CO2`, the AC40 is 1.87 µM.
With `Cc1ccc(-c2n[nH]c(=O)c3ccccc23)cc1S(=O)(=O)Nc1ccc(F)cc1`, the AC40 was 0.293 µM.
As to `Cc1ccc(NS(=O)(=O)c2ccc3c(c2)NC(=O)CO3)cc1C`, the AC40 was 6.29 µM.
With `CC(C)c1ccc(NC(=O)Cc2cn(C)c3ccccc23)cc1`, the AC40 was 11.9 µM.
Turning to `Cc1ccc(OP(=O)(Nc2cccc(C)c2)Oc2ccc(C)cc2)cc1`, the AC40 was 6.66 µM.
For `C[C@H](CO)N1C[C@H](C)[C@@H](CN(C)Cc2ccc3c(c2)OCO3)Oc2c(NC(=O)C3CCOCC3)cccc2C1=O`, the AC40 is 9.34 µM.
As to `OC(c1ccc(F)cc1)c1ncc(-c2ccccc2F)[nH]1` (centres undefined), the AC40 was 5.16 µM.
As to `COc1ccc(Cl)cc1N(CC(=O)N1CCCC1)S(=O)(=O)c1ccc(C)cc1`, the AC40 is 2.49 µM.
Take `COc1ccccc1C(=O)Nc1ccc2c(c1)C(=O)N(C)[C@H]1CC[C@@H](CC(=O)NCc3ccc(Cl)c(Cl)c3)O[C@H]1CO2`: the AC40 was 0.359 µM.
For the compound `COc1cc(NS(=O)(=O)c2ccc(OC)c(C)c2C)c(OC)cc1Cl`, the AC40 is 3.5 µM.
With `COc1ccc(C(=O)N2C[C@H]3[C@@H](c4ccccc42)[C@@H](CO)N3C(=O)c2ccc(F)cc2)cc1` the figure was 0.631 µM.
Regarding `CCOC(=O)N1CCN(S(=O)(=O)c2cc(OCC)ccc2OCC)CC1`, the AC40 was 4.56 µM.
For `COc1ccc(NS(=O)(=O)c2cc(NC(=O)c3ccc(Cl)cc3)ccc2N2CCOCC2)cc1`, the AC40 is less than 0.26 µM.
The figure for `Fc1cccc(Cn2cc(C(=S)N3CCOCC3)c3ccccc32)c1` is 21 µM.
Consider `O=S(=O)(NC1CCCCC1)c1cccc(-c2nnc(-c3ccccc3)o2)c1`, for which the AC40 was 2.16 µM.
For the compound `C[C@H](CO)N1C[C@H](C)[C@@H](CN(C)Cc2ccc(C(=O)Nc3ccccc3N)cc2)Oc2c(NC(=O)Nc3ccccc3)cccc2C1=O`, the AC40 is 23.5 µM.
For `Cc1ccc(S(=O)(=O)n2nc(C)c(Br)c2C)c(C)c1C`, the AC40 was 12 µM.
Regarding `Cc1ccc(C(=O)C2Oc3ccccc3C3CC(c4ccc(C)cc4)=NN23)cc1` (centres undefined), the AC40 is 1.17 µM.
In the case of `CCOc1cc(C)c(Cl)cc1S(=O)(=O)NC1CC(C)(C)NC(C)(C)C1`, the AC40 was 6.39 µM.
For the compound `O=S(=O)(NCCC1=CCCCC1)c1ccccc1Br`, the AC40 was 2.03 µM.
Take `COc1ccc(NC(=O)CCNS(=O)(=O)c2cc(Br)ccc2Br)cc1S(N)(=O)=O`: the AC40 was 2.1 µM.
For the compound `CCc1ccc(NS(=O)(=O)c2ccc(OC)c3ncccc23)cc1`, the AC40 is 0.362 µM.
With `O=S(=O)(Nc1ccccc1)c1ccc(-c2cnc(C3CC3)o2)cc1` the figure was 8.92 µM; with `S=C(NCCc1ccccc1)Nc1ccc(Cl)cc1Cl`, 5.71 µM; with `COc1ccc(OC)c(NS(=O)(=O)c2ccc(N3CCCC3=O)cc2)c1`, 14.8 µM.
`Cc1ccc(S(=O)(=O)Nc2cc(C)c(O)c(S(=O)(=O)c3ccc(C)cc3)c2)cc1`: the AC40 is 11.2 µM.
Take `Cc1ccc(S(=O)(=O)Nc2ccc3c(c2)CCC3)cc1`: the AC40 is 6.54 µM.
In the case of `Cc1cc(C)c(S(=O)(=O)Nc2ccc(O)cc2)cc1C`, the AC40 was 3.45 µM.
As to `COc1cccc(N2CCN(C(=O)c3ccc(CS(=O)c4ccccc4Cl)o3)CC2)c1` (centres undefined), the AC40 is 15.8 µM.
Take `Cc1nc2ccc(NS(=O)(=O)c3c(C)c(C)cc(C)c3C)cc2s1`: the AC40 is 0.68 µM.
As for `O=C(CCc1ccc(S(=O)(=O)NC2CCCCC2)cc1)N(Cc1ccccc1)Cc1ccccc1`, the AC40 was 2.07 µM.
`COc1ccc(S(=O)(=O)Nc2cccc3c2O[C@H](CN(C)Cc2ccc(Cl)c(Cl)c2)[C@@H](C)CN([C@H](C)CO)C3=O)cc1`: the AC40 was 4.25 µM.
Consider `CCCCNS(=O)(=O)c1ccc2nc(SCC(N)=O)[nH]c2c1`, for which the AC40 is 6.07 µM.
Consider `COc1cc(C)c(Cl)cc1S(=O)(=O)NCc1ccco1`, for which the AC40 was 1.18 µM.
Regarding `O=C(Nc1sc2c(c1C(=O)O)CCC2)c1ccco1`, the AC40 is 15.1 µM.
On to `COc1ccc(C(=O)N2C[C@@H]3[C@H](c4ccccc42)[C@H](CO)N3Cc2ccc3c(c2)OCO3)cc1`, for which the AC40 is 5.57 µM.
For the compound `CC(=O)c1cccc(NS(=O)(=O)c2ccc3c(c2)oc(=O)n3C)c1`, the AC40 is 7.31 µM.
The figure for `C[C@@H]1CN([C@H](C)CO)C(=O)c2cccc(NS(=O)(=O)c3cccs3)c2O[C@H]1CN(C)Cc1ccc(C(F)(F)F)cc1` is 1.6 µM.
With `Cc1cccc(NS(=O)(=O)c2ccc(-c3cnc(C4CC4)o3)cc2)c1` the figure was 2.13 µM; with `CC12CCC3C(CCC4(O)CC(O)CCC34C=O)C1(O)CCC2C1=CC(=O)OC1` (centres undefined), 2.4 µM.
The figure for `COc1ccc(S(=O)(=O)N2CC[C@@H]3[C@H](CO)N(C)c4ccc(-c5ccc(F)cc5)cc4[C@@H]32)cc1` is 7.49 µM; for `COc1ccc(C)cc1S(=O)(=O)NCCC1=CCCCC1` it is 0.465 µM.
Take `COc1ccc(NS(=O)(=O)c2cc(N)ccc2N2CCOCC2)cc1`: the AC40 is 6.74 µM.
With `CCN(CC)S(=O)(=O)c1cc(NS(=O)(=O)c2cc(Cl)ccc2Cl)ccc1C`, the AC40 was 4.19 µM.
With `CN(C)Cc1ccccc1CNC(=O)c1cccc(S(=O)(=O)Nc2ccc3c(c2)OCO3)c1` the figure was 2.15 µM; with `COc1ccc(C)cc1NS(=O)(=O)c1ccc2c(c1)N(C)CCO2`, 1.54 µM; with `COc1ccc(C)cc1S(=O)(=O)NC1CCCCCC1`, 2.03 µM.
On to `Cc1ccc(S(=O)(=O)Nc2cccc(-c3ccc4nncn4n3)c2)cc1`, for which the AC40 was 9.35 µM.
As for `CCOc1cc(C)c(S(=O)(=O)NC2CCCCC2)cc1C`, the AC40 is 1.49 µM.
With `CC1CCN(C(=O)CN(c2ccc3c(c2)OCCO3)S(=O)(=O)c2ccccc2)CC1` the figure was 2.51 µM; with `COc1ccccc1NS(=O)(=O)c1cc(NC(=S)NCCN2CCOCC2)ccc1N1CCOCC1`, 1.71 µM; with `COc1ccc(NC(=O)c2cc(C)nc3ccccc23)cc1S(=O)(=O)Nc1ccccc1Cl`, 2.33 µM.
`COc1ccc(C)cc1S(=O)(=O)Nc1cccc(SC)c1`: the AC40 is 0.582 µM.
For `CCOc1ccc(Br)cc1S(=O)(=O)Nc1cccc(S(=O)(=O)N(C)c2ccccc2)c1`, the AC40 was 3.18 µM.
With `O=S(=O)(NCc1ccccc1)c1ccc2c(c1)OCCO2` the figure was 3.42 µM; with `Cc1ccc(-c2cc(C(=O)NCCCn3ccnc3)c3ccccc3n2)s1`, 11.1 µM; with `COc1cccc(C(=O)N2C[C@H]3[C@@H](c4ccccc42)[C@H](CO)N3C(=O)c2ccc(F)cc2)c1`, 33.6 µM.
Regarding `COC(=O)c1ccc(NS(=O)(=O)c2cc(C)ccc2OC)cc1`, the AC40 is 4.89 µM.
With `CCCNC(=O)C[C@H]1CC[C@H]2[C@H](COc3ccc(NC(=O)Cc4cccs4)cc3C(=O)N2C)O1`, the AC40 was 2.21 µM.
For the compound `CCc1ccc(-c2cc(C)no2)cc1S(=O)(=O)NCc1ccccc1OC`, the AC40 was 3.11 µM.
As for `COc1ccccc1NS(=O)(=O)c1cc(NC(=O)c2cc(=O)[nH]c3ccccc23)ccc1N1CCOCC1`, the AC40 is 1.01 µM.
With `O=C(Nc1ccc2c(c1)CCC2)c1cc(S(=O)(=O)Nc2ccc(F)cc2)c(Cl)cc1Cl` the figure was 4.1 µM.

(Values after PubChem BioAssay AID652053 (Broad Institute, 2013).)
